Test results published in patent US7700644B2, “Isoflavonoid dimers” (Novogen Research Pty Ltd, priority 2005, dated 2010).

Assays:
[1] = tested on: HCT-15 (Colorectal); test: In vitro cytotoxicity, MTT proliferation assay, HCT-15; assay type: cell-based, human; conditions: Homo sapiens; Colorectal HCT-15
Procedure: (§1) The human pancreatic cancer cell line, HPAC (CRL-2119) was routinely cultured in 1:1 mixture DMEM (Sigma) plus Ham's F12 (Sigma) medium containing HEPES (15 mM), insulin (0.002 mg/ml), transferrin (0.005 mg/ml), hydrocortisone, (40 ng/ml), epidermal growth factor (10 ng/ml). The ovarian cancer cell line CP70 was obtained as a gift from Dr. Gil Mor (Yale University) and cultured in a 1:1 mixture DMEM plus Ham's F12 medium, and SKOV-3 was purchased from ATCC and cultured in McCoy's 5a medium. The breast cancer cell line MDA-MB-468 cultured in Leibovitz's L-15 medium.
(§2) All cultures were supplemented with 10% FCS(CSL, Australia), penicillin (100 U/ml), streptomycin ([…]), L-glutamine (2 mM) and sodium bicarbonate (1.2 g/L), and cultured at 37° C. in a humidified atmosphere of 5% CO2. All remaining cell lines were purchased from ATCC (Maryland, USA) except where noted.
(§3) IC50 values were determined for each cell line. Cells were seeded in 96-well plates at an appropriate cell density as determined from growth kinetics analysis. NFFs were cultured for 5 days and RK-13s for 24 hrs in the absence and presence of the test compounds. Cell proliferation was assessed after the addition of 20 μl of 3-4,5 dimethylthiazol-2,5-diphenyl tetrazolium bromide (MTT, 2.5 mg/ml in PBS, Sigma) for 3-4 hrs at 37° C. according to manufacturer's instructions. IC50 values were calculated from semi-log plots of % of control proliferation on the y-axis against log dose on the x-axis.

[2] = tested on: TXB2 synthesis; test: TXB2 synthesis in human monocytes incubated with LPS; assay type: cell-based; conditions: LPS 200 ng/mL, 18 hrs, dose responsive
Procedure: Human peripheral blood monocytes (from three separate individuals) were isolated from buffy coats by lymphoprep gradient separation of mononuclear cells followed by counter-current centrifugal elutriation (Demasi et al. 2000). The test compounds were dissolved in DMSO and added to fresh monocytes After 30 min, LPS was added to achieve a final concentration of 200 ng/mL. After incubation for 18 hrs at 37° C. in 5% CO2, supernatants were removed and PGE2, TXB2 (the stable hydrolysis product of TXA2) and TNFα production were measured by radioimmunoassay (RIA).

[3] = tested on: ovarian cancer cell line CP70; test: In vitro cytotoxicity, MTT proliferation assay, CP70; assay type: cell-based, human; conditions: Homo sapiens
Procedure: as §1, §2, §3

[4] = tested on: NCI-H460 (Lung); test: In vitro cytotoxicity, MTT proliferation assay, NCI-H460; assay type: cell-based, human; conditions: Homo sapiens
Procedure: as §1, §2, §3

[5] = tested on: PGE2; test: PGE2 in murine macrophages (RAW 264.7) stimulated with LPS; assay type: cell-based, mouse; conditions: RAW 264.7, LPS 50 ng/ml, 16 hrs, dose responsive
Procedure: The mouse macrophage cell line RAW 264.7 was cultured in DMEM supplemented with FCS, 2 mM glutamine and 50 U/ml penicillin/streptomycin. Subconfluent cells were detached from the flask by gentle scraping and 24-well plates seeded at 5×10^5 cells per well and allowed to adhere for 1 hr. Cells were then treated either test compounds (in 0.025% DMSO) or vehicle alone, and incubated for 1 hr. LPS 50 ng/ml (LPS —Sigma-Aldrich) was then added. After incubation for 16 hrs, culture media was collected and stored at −80° C. for ecosanoid and cytokine measurements using enzyme immunometric assays (PGE2 and TXB2—Cayman Chemical and TNFα—Becton Dickinson).

[6] = tested on: MM200 (Melanoma); test: In vitro cytotoxicity, MTT proliferation assay, MM200; assay type: cell-based, human; conditions: Homo sapiens
Procedure: as §1, §2, §3

[7] = tested on: DU145 (Prostate); test: In vitro cytotoxicity, MTT proliferation assay, DU145; assay type: cell-based, human; conditions: Homo sapiens, DU-145
Procedure: as §1, §2, §3

[8] = tested on: MCF-7 (Breast); test: In vitro cytotoxicity, MTT proliferation assay, MCF-7; assay type: cell-based, human; conditions: Homo sapiens, MCF7; Breast MCF-7
Procedure: as §1, §2, §3

[9] = tested on: Neonatal foreskin fibroblasts (NFF); test: Normal cell toxicity, MTT proliferation assay, NFF; assay type: cell-based, human
Procedure: Neonatal foreskin fibroblasts (NFF) were a gift from Dr. Peter Parsons (Queensland Institute of Medical Research). RK-13 (rabbit kidney) cells were obtained from Miller Whalley (Macquarie University). Both cell types were cultured in RPMI supplemented with 10% FCS (CSL, Australia), penicillin (100 U/ml), streptomycin ([…]), L-glutamine (2 mM) and sodium bicarbonate (1.2 g/L), and cultured at 37° C. in a humidified atmosphere of 5% CO2.
as §3
Duplicate cytotoxicity assays against NFF cells were conducted with dehydroequol (DHE), 4,9-dihydroxy-14,15-dimethoxy-12a-(3′,4′-dimethoxyphenyl)-3,10-dimethyl-2,11-dioxa-(1H,12H)-6b,6c,12a,16b-tetrahydronaphtho[1,2-g]chrysene (2) from Example 6.1 and cisplatin.

[10] = tested on: UV irradiation-induced skin oedema; test: Murine model of UV irradiation-induced skin oedema; assay type: in vivo, female Skh:hr-1 albino mice; conditions: for Change in skin thickness (mean ± SD, ×0.01 mm): dorsal skin fold, topical 0.2 ml of 20 μM at 30 min, 2 h, 4 h
Description: Groups of 4-5 female Skh:hr-1 albino mice were irradiated with 1×3 MEdD (minimal edematous dose) of solar simulated UV radiation (SSUV). Solar-simulated ultraviolet radiation (SSUV) was provided by a planar bank of 6 UVA tube (Hitachi 40W F40T 10/BL, black light) and one UVB tube (Philips TL 40W/12RS) with radiation filtered through a sheet of 0.125 mm cellulose acetate (Eastman Chemical Products, Kingport, Tenn., USA) to give 2.96×10-4W/cm2 UVA and 1.59×10-5W/cm2 UVB. The distance of the UV lamp from the irradiance table surface was approximately 20 cm and temperature was controlled with an electric fan. During irradiation, the cages were rotated below the lights to reduce the variation in radiation intensity in different positions.
Either test compound (0.2 ml of a 20 μM solution) or vehicle (propylene glycol/ethanol/water 1:2:1) was applied to the irradiated dorsal skin at 30 min, 2 h and 4 h post-irradiation. Dorsal skin fold measurements were made with a spring micrometer prior to and at 24 hr and 48 h post-UV exposure. The difference in skin thickness pre- and post-exposure to UVR was calculated for each mouse, and the differences examined between test compound and vehicle control were analysed using an unpaired two-tailed t test.

In the case of COc1ccc(C23COc4c(ccc(O)c4C)C2C2c4ccc(O)c(C)c4OCC2c2cc(OC)c(OC)cc23)cc1OC (centres unmarked) [Cpd. 2, 4,9-Dihydroxy-14,15-dimethoxy-12a-(3′,4′-dimethoxyphenyl)-3,10-dimethyl-2,11-dioxa-(1H,12H)-6b,6c,12a,16b-tetrahydronaphtho[1,2-g]chrysene], the IC50 [1] is reported as 54.7 ± 28 µM, the “effect on TXB2 synthesis” value [2] is reported as “inhibited” and the IC50 [3] is reported as 8.23 ± 3.73 µM. The IC50 [4] was 11.3 ± 4.97 µM, the “effect on PGE2” value [5] was “induced” and the IC50 [6] was 6.5 µM. It also gave an IC50 [7] of 8.84 ± 0.47 µM, an IC50 [8] of 10.3 µM and an IC50 ([9]; Homo sapiens, 120 h, NFF fibroblast, cultured 5 days, MTT) of 23.6 ± 6.6 µM. For the same molecule, the “toxicity to normal cells relative to cisplatin and dehydroequol” value ([9]; normal cells (NFF, rabbit kidney)) was “less toxic to normal cells than cisplatin, but more toxic than dehydroequol”, the “inhibition of skin oedema” value ([10]; 24 hrs post-irradiation) was “significantly inhibited” and the “inhibition of skin oedema” value ([10]; 48 hrs post-irradiation) was “significantly inhibited”. The “Change in skin thickness (mean ± SD, ×0.01 mm)” value ([10]; 24 hrs post-irradiation, vehicle 78 ± 23) was 36 ± 22 ×0.01 mm and the “Change in skin thickness (mean ± SD, ×0.01 mm)” value ([10]; 48 hrs post-irradiation, vehicle 147 ± 37) was 105 ± 16 ×0.01 mm.
